# Laboratory results from patent US20250009649A1, “Implants for Loss of Taste and Smell” (Cyrano Therapeutics, Inc., priority 2021, published 2025).
# Key:
# [1] = test system: patient who had loss of taste and smell from COVID-19; assay: Psychophysical smell test, forced-choice, three-stimuli, stepwise-staircase technique (detection and recognition thresholds for four odors); type: in vivo, human
# Excerpt: The Patient initially reported their sensory dysfunction as either loss of taste (i.e., flavor) and/or smell function. This subjective response was documented by objective psychophysical measurements of olfactory function administered to each patient by use of a forced-choice, three-stimuli, stepwise-staircase technique in a fixed, controlled design (1, 2). Efficacy of this technique and results of testing were previously documented in a double-blind clinical trial (2). Four odors were used; they were pyridine (dead-fish odor), nitrobenzene (bitter-almond odor), thiophene (petroleum-like odor) and amyl acetate (banana-oil odor). Detection thresholds (DT), and recognition thresholds (RT) values for each odor were determined as previously described (1, 2). Thresholds were converted into bottle units (BU) as previously described (2) and results reported as M of correct responses for each odor in each treatment group. References: (1) Henkin, R. I. Evaluation and treatment of human olfactory dysfunction, in Otolaryngology (English, G. M. Ed.), Lip pincott, Philadelphia, 1993, Vol. 2, pp. 1-86. (2) Henkin, R. I., Schecter, P. J., Friedewald, W. T., DeMets, D. L., Raff, M. S. A double blind study of the effects of zinc sulfate on taste and smell dysfunction. Amer. J. Med. Sci. 1976; 272: 285-299.
# (§1) Theophylline was administered to a patient who had loss of taste and smell from COVID-19. A formulation containing 80 μg of theophylline was administered via two actuations from nasal spray device once per day. Prior to the initial administration of theophylline, a baseline smell test was performed. A follow-up smell test was performed 3 months after the initial administration. […] The patient's detection threshold (DT) and recognition threshold (RT) for pyridine (Pyr), nitrobenzene (NO2B), thiophene (Thio) and amyl acetate (AA) was determined before treatment (pre) and after treatment (3M). In all four odorant tests, the patient's detection threshold and recognition threshold improved. An improvement of 1 bottle unit means that a patient could detect and/or recognize an odorant that was 10 times lower in concentration, when compared to baseline. For example, the recognition threshold (RT) of AA improved by 8 bottle units, also equivalent to an improvement of 8 orders of magnitude. In this case, the patient could detect a concentration of AA that was 10^8 lower in concentration. Bottle unit numbers that are 5 or lower are considered to be in the range of normal.
# [2] = test system: patient who had loss of taste and smell from COVID-19; assay: Side effects reported during intranasal theophylline treatment; type: in vivo, human; settings: 80 μg theophylline via nasal spray once per day, 3 months
# Protocol: as §1
# [3] = 3 months after initial administration, 80 μg theophylline nasal spray once per day, Pre value 10
# [4] = 3 months after initial administration, 80 μg theophylline nasal spray once per day, Pre value 11
# [5] = 3 months after initial administration, 80 μg theophylline nasal spray once per day, Pre value 12
smiles,measurement,setting,value
Cn1c(=O)c2[nH]cnc2n(C)c1=O [theophylline],"DT Thio (detection threshold, thiophene)",[1]; [3],4 bottle units
same,"RT Thio (recognition threshold, thiophene)",[1]; [3],4 bottle units
same,"DT AA (detection threshold, amyl acetate)",[1]; [4],4 bottle units
same,"DT NO2B (detection threshold, nitrobenzene)",[1]; [4],9 bottle units
same,"RT Pyr (recognition threshold, pyridine)",[1]; [4],7 bottle units
same,"DT Pyr (detection threshold, pyridine)","[1]; 3 months after initial administration, 80 μg theophylline nasal spray once per day, Pre value 11, 5 or lower is normal",7 bottle units
same,"RT AA (recognition threshold, amyl acetate)",[1]; [5],4 bottle units
same,"RT NO2B (recognition threshold, nitrobenzene)",[1]; [5],9 bottle units
same,improvement of recognition threshold (RT) of AA,"[1]; 3 months vs baseline, 80 μg theophylline nasal spray once per day",8 bottle units
same,factor by which the detectable concentration of AA was lower,"[1]; 3 months vs baseline, 1 bottle unit = 10 times lower concentration",10^8
same,detection threshold and recognition threshold in all four odorant tests,"[1]; 3 months vs baseline, pyridine, nitrobenzene, thiophene, amyl acetate",improved
same,side effects,[2],No side effects
